Laboratory results: article PMC9273165, “Metal-free domino amination-Knoevenagel condensation approach to access new coumarins as potent nanomolar inhibitors of VEGFR-2 and EGFR” (Green chemistry letters and reviews, 2021)
Where “and” joins values, the source holds several entries; their conditions need not be identical. Equal values may be shown once. Read-outs that look alike come from different tables or passages of the source. Starred links: 1 amine or outer side, 2 acyl side, 3 side chain; linkers in the order of their positions; H or OH if unused. Positions of bridges follow the written chain, without caps; N, C: chain ends. Non-standard residues stand in square brackets, D forms with d. Residues, ends and D or L forms follow the SMILES beside them. Chains are numbered I, II in the order given. Actinocin(9to1) = Cc1c2oc3c(C)ccc(C(=O)[*:1])c3nc-2c(C(=O)[*:2])c(N)c1=O; NMeV = CN[C@H](C(=O)O)C(C)C; Sar = CNCC(=O)O

Columns and labels:
[1] = test system: PC3 (prostate) human cancer cell line; assay: resazurin-based cytotoxicity assay, PC3; type: cell-based; details: for IC50: PC3 (prostate), 72 h incubation, mean ± SD of triplicate wells
Excerpt: (§1) (Table 2, Figure 3). […] The remaining molecules pretended with low cytotoxic effect. Grounded on these outcomes, we concluded that the 4-AMP and morpholine moieties would be the optimal cyclic secondary amines in this study.

[2] = test system: A549 (non-small cell lung) human cancer cell line; assay: resazurin-based cytotoxicity assay, A549; type: cell-based; details: for IC50: A549 (non-small cell lung), 72 h incubation, mean ± SD of triplicate wells
Excerpt: as §1

KB-3-1 cell line = assay: resazurin-based cytotoxicity assay, KB-3-1
Procedure: Anti-cervical cancer activity of all the synthesized compounds was evaluated for their in vitro cytotoxicity toward KB-3-1 cell line by resazurin-based assay [49] using (+)-griseofulvin as a positive control.
Anti-cervical cancer activity of all the synthesized compounds were evaluated for the in vitro cytotoxicity toward KB-3-1 cell line (was obtained from the American Type Culture Collection, ATCC, Rockville, MD, USA) by resazurin-based assay [49] using (+)-griseofulvin as a positive control.

EGFR kinase = molecular target: T1, EGFR kinase (Homo sapiens, UniProt P00533); assay: EGFR Kinase Assay Kit, luminescence; type: biochemical; details: for EGFR Fold to erlotinib: IC50 relative to the standard erlotinib; for IC50: kinase assay kit, luminescence
T1 construct: purchased 40321
Procedure: (§2) Overexpression and/or hyperactivation of VEGFR-2 and EGFR kinases are strongly associated with several malignant cancers such as non-small cell lung carcinoma (NSCLC), breast, ovarian, colon, and prostate cancers. Targeting one or both of them is a promising pathway to explore more anti-angiogenic inhibitors. […] At the end of the experiment, the luminescence was measured by Tecan spark microplate reader. The compounds concentration that inactivate 50% of the measured kinases was separately, calculated using a curve fitting software; Prism, version 6.

VEGFR-2 (KDR) = molecular target: T2, VEGFR-2 (KDR) (Homo sapiens, UniProt P35968); assay: VEGFR-2 (KDR) Kinase Assay Kit, luminescence; type: biochemical; details: for VEGFR-2 Fold to sorafenib: IC50 relative to the standard sorafenib; for IC50: kinase assay kit, luminescence
T2 construct: purchased 40325
Procedure: as §2

[3] = Homo sapiens, KB 3-1, read-out: IC50 (μM) KB-3-1
[4] = KB-3-1 (cervix) human cancer cell line, mean ± SD of two independent determinations

T1 sequence (P00533 25-1210): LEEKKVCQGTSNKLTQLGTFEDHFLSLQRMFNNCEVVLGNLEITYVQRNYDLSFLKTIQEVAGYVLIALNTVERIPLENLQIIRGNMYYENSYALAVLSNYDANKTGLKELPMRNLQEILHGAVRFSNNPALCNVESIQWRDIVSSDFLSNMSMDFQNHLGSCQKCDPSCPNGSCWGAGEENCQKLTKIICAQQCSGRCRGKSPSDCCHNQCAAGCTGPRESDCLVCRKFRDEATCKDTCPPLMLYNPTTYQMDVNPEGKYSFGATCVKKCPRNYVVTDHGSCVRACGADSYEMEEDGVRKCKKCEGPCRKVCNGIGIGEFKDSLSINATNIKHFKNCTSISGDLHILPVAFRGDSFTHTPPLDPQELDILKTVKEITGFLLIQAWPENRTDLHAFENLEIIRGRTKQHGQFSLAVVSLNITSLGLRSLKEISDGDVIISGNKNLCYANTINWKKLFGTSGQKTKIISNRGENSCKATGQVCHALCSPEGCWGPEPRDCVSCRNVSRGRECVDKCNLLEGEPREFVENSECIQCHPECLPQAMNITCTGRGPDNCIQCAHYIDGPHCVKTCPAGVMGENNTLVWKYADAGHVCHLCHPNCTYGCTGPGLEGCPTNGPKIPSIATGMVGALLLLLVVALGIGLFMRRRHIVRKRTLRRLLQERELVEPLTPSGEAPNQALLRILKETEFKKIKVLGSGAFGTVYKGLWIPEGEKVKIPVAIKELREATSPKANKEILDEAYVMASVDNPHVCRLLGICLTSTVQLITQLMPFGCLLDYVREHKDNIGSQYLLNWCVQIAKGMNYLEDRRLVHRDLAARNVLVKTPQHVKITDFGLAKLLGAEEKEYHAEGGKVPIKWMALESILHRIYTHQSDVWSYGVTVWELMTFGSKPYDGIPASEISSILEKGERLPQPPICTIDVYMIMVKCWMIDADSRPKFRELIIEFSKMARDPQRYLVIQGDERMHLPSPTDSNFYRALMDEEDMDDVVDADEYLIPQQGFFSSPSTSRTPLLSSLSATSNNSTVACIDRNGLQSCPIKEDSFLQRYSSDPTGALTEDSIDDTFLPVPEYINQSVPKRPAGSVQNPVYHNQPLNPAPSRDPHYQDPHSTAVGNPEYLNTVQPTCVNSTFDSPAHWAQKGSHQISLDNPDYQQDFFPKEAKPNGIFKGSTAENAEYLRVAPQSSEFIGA
T2 sequence (P35968 20-1356): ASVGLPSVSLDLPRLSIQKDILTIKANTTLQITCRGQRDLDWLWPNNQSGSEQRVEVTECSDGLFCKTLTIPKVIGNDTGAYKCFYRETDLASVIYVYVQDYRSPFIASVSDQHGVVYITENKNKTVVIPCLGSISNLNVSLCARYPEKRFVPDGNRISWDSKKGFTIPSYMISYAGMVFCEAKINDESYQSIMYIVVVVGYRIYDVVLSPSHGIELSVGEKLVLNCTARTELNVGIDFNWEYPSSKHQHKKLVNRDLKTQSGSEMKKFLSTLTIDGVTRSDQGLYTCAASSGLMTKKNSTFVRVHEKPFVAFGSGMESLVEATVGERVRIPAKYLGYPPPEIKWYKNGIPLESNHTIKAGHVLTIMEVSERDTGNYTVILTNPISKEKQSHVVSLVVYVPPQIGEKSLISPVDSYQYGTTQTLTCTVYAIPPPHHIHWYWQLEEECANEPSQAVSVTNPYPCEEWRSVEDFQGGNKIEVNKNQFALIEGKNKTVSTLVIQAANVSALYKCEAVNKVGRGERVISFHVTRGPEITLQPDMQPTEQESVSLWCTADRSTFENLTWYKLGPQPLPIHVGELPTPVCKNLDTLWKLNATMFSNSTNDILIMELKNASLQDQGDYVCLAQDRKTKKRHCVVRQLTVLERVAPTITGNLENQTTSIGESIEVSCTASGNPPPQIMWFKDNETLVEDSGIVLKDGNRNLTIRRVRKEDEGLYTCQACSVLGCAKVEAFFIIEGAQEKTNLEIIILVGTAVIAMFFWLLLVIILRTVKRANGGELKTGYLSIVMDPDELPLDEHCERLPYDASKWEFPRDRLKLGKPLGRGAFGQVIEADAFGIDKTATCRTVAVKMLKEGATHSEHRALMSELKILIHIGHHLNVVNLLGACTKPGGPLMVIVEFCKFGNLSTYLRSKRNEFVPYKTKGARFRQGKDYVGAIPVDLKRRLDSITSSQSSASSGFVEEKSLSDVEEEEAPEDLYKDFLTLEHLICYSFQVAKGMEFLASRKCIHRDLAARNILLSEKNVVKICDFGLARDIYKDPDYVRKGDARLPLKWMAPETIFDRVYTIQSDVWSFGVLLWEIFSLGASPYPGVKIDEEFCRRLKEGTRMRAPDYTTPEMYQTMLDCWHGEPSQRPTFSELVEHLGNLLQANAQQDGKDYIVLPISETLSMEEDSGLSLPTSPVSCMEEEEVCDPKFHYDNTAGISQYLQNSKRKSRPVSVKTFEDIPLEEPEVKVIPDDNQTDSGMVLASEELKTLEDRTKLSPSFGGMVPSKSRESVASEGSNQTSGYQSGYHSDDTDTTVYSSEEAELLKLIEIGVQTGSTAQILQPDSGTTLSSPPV

| Structure (SMILES) | viability at 20 µM ([1]; PC3, positive control at 20 μM, 72 h, read-out: viable cells) [%] | viability at 20 µM ([2]; A549, positive control at 20 μM, 72 h, read-out: viable cells) [%] | IC50 [1] [µM] | melting point [°C] | IC50 [2] [µM] | IC50 (KB-3-1 cell line; [3]) [µM] | IC50 (μM) KB-3-1 (KB-3-1 cell line; [4]) | IC50 (KB-3-1 cell line; read-out: IC50 (μM) KB-3-1, KB-3-1 (cervix) human cancer cell line, mean ± SD of two independent determinations) [µM] | EGFR Fold to erlotinib (EGFR kinase) [fold] | IC50 (EGFR kinase) | VEGFR-2 Fold to sorafenib (VEGFR-2 (KDR)) [fold] | IC50 (VEGFR-2 (KDR)) |
| --- | --- | --- | --- | --- | --- | --- | --- | --- | --- | --- | --- | --- |
| Cc1c2oc3c(C)ccc(C(=O)N[C@@H]4C(=O)N[C@H](C(C)C)C(=O)N5CCC[C@H]5C(=O)N(C)CC(=O)N(C)[C@@H](C(C)C)C(=O)O[C@@H]4C)c3nc-2c(C(=O)N[C@@H]2C(=O)N[C@H](C(C)C)C(=O)N3CCC[C@H]3C(=O)N(C)CC(=O)N(C)[C@@H](C(C)C)C(=O)O[C@@H]2C)c(N)c1=O [Actinomycin D, reference compound] (I: T[dV]P[Sar][NMeV] / II: T[dV]P[Sar][NMeV]; ester I:1-I:C, II:1-II:C; linker I:N-II:N via Actinocin(9to1)) | 0 | 0 |  |  |  |  |  |  |  |  |  |  |
| O=c1oc2ccccc2c(N2CCCC2)c1[N+](=O)[O-] [Compound 9a, 4-Pyrrolidino-3-nitro-2H-chromen-2-one] |  |  | > 80 | 204 to 206 | > 80 | > 100 |  |  |  |  |  |  |
| COC(=O)/C(C#N)=C/c1c(OC)c2ccccc2oc1=O [Compound 4f, Methyl (E)-2-cyano-3-(4-methoxy-2-oxo-2H-chromen-3-yl)acrylate] |  |  | 38.9 | 148 to 150 | > 80 | > 100 | no activity |  |  |  |  |  |
| N#CC(C#N)=C(N)/C(C#N)=C/c1c(N2CCCC2)c2ccccc2oc1=O [Compound 8a, (Z)-2-amino-4-(2-oxo-4-(pyrrolidin-1-yl)-2H-chromen-3-yl)buta-1,3-diene-1,1,3-tricarbonitrile] |  |  | > 80 | > 320 | > 80 | > 100 |  |  |  |  |  |  |
| COC1=CC(=O)C[C@@H](C)[C@]12Oc1c(Cl)c(OC)cc(OC)c1C2=O [(+)-Griseofulvin, (+)-griseofulvin, reference compound] |  |  |  |  |  |  |  | 19 ± 2.83 |  |  |  |  |
| COc1c(C=O)c(=O)oc2ccccc12 [Compound 5f, 4-Methoxy-3-formyl-2H-chromen-2-one] |  |  | > 80 | 118 to 120 | > 80 | > 100 | no activity |  |  |  |  |  |
| N#CC(C#N)=C(N)/C(C#N)=C/c1c(N2CCCCC2)c2ccccc2oc1=O [Compound 8b, (Z)-2-amino-4-(2-oxo-4-(piperidin-1-yl)-2H-chromen-3-yl)buta-1,3-diene-1,1,3-tricarbonitrile] |  |  | > 80 | 308 to 310 | > 80 | > 100 |  |  |  |  |  |  |
| COC(=O)/C(C#N)=C/c1c(N2CCCC2)c2ccccc2oc1=O [Compound 4a, Methyl (E)-2-cyano-3-(2-oxo-4-(pyrrolidin-1-yl)-2H-chromen-3-yl)acrylate] |  |  | > 80 | 230 to 232 | > 80 | > 100 | no activity |  |  |  |  |  |
| O=Cc1c(NCC2CCNCC2)c2ccccc2oc1=O [Compound 5e, 4-((Piperidin-4-ylmethyl)amino)-3-formyl-2H-chromen-2-one] |  |  | > 80 | 208 to 210 | > 80 | > 70 |  |  | 3.6 | 0.096 µM and 0.0963 µM | 2.8 | 0.088 µM and 0.0881 µM |
| COC(=O)/C(C#N)=C/c1c(N2CCOCC2)c2ccccc2oc1=O [Compound 4d, Methyl (E)-2-cyano-3-(4-morpholino-2-oxo-2H-chromen-3-yl)acrylate] |  |  | > 50 | 218 to 220 | > 80 | > 100 |  |  |  |  |  |  |
| N#CC(C#N)=Cc1c(N2CCC(O)CC2)c2ccccc2oc1=O [Compound 8c, 2-((4-(4-Hydroxypiperidin-1-yl)-2-oxo-2H-chromen-3-yl)methylene)malononitrile] |  |  | > 80 | 294 to 296 | > 80 | > 100 |  |  |  |  |  |  |
| O=Cc1c(N2CCCC2)c2ccccc2oc1=O [Compound 5a, 4-Pyrrolidino-3-formyl-2H-chromen-2-one] |  |  | > 80 | 190 to 192 | > 80 | > 100 | no activity |  |  |  |  |  |
| COC(=O)/C(C#N)=C/c1c(N2CCC(O)CC2)c2ccccc2oc1=O [Compound 4c, Methyl (E)-2-cyano-3-(4-(4-hydroxypiperidin-1-yl)-2-oxo-2H-chromen-3-yl)acrylate] |  |  | > 50 | 194 to 196 | > 80 | > 100 |  |  |  |  |  |  |
| O=c1oc2ccccc2c(NCC2CCNCC2)c1[N+](=O)[O-] [Compound 9e, 4-((Piperidin-4-ylmethyl)amino)-3-nitro-2H-chromen-2-one] |  |  | > 80 | 208 to 210 | > 80 | > 100 | no activity |  |  |  |  |  |
| O=c1oc2ccccc2c(N2CCOCC2)c1[N+](=O)[O-] [Compound 9d, 4-Morpholino-3-nitro-2H-chromen-2-one] |  |  | 7.31 ± 0.48 | 210 to 212 | 19.8 ± 0.56 | > 70 |  |  | 6.2 | 0.165 ± 0.008 µM | 0.8 | 0.024 µM and 0.0243 µM |
| COc1c([N+](=O)[O-])c(=O)oc2ccccc12 [Compound 9f, 4-Methoxy-3-nitro-2H-chromen-2-one] |  |  |  |  |  | > 100 | no activity |  |  |  |  |  |
| N#CC(C#N)=Cc1c(NCC2CCNCC2)c2ccccc2oc1=O [Compound 8e, 2-((2-Oxo-4-((piperidin-4-ylmethyl)amino)-2H-chromen-3-yl)methylene)malononitrile] |  |  | > 50 | 154 to 156 | > 50 | 21 ± 4.24 |  |  | 1.2 | 0.032 µM and 0.0316 µM | 0.8 | 0.025 µM and 0.0247 µM |
| O=Cc1c(N2CCOCC2)c2ccccc2oc1=O [Compound 5d, 4-Morpholino-3-formyl-2H-chromen-2-one] |  |  | 31.1 | 150 to 152 | > 50 | > 100 |  |  |  |  |  |  |
| COC(=O)/C(C#N)=C/c1c(N2CCCCC2)c2ccccc2oc1=O [Compound 4b, Methyl (E)-2-cyano-3-(2-oxo-4-(piperidin-1-yl)-2H-chromen-3-yl)acrylate] |  |  | > 50 | 192 to 194 | > 80 | > 100 | no activity |  |  |  |  |  |
| COC(=O)/C(C#N)=C/c1c(NCC2CCNCC2)c2ccccc2oc1=O [Compound 4e, Methyl (E)-2-cyano-3-(2-oxo-4-((piperidin-4-ylmethyl)amino)-2H-chromen-3-yl)acrylate] |  |  | 11.28 ± 0.06 | 172 to 174 | 12.9 ± 1.51 | 15.5 ± 3.54 |  |  | 2.5 | 0.067 µM and 0.0671 µM | 1.2 | 0.037 µM and 0.0368 µM |
| N#CC(C#N)=Cc1c(N2CCOCC2)c2ccccc2oc1=O [Compound 8d, 2-((4-Morpholino-2-oxo-2H-chromen-3-yl)methylene)malononitrile] |  |  | 20.16 ± 0.07 | 196 to 198 | > 80 | > 100 |  |  |  |  |  |  |
